Experimental data as given in ChEMBL document CHEMBL1201862, “PubChem BioAssay data set” (2004).
Active and inactive are the calls of the source.

Experiments:
Vero [1] = test: Vero 76 cell viability after compound exposure – Vero 76 cells, synthesized analogs, cytotoxicity control for West Nile virus antiviral project, SAR follow-up (AID 2414); format: functional; settings: Chlorocebus sabaeus
Vero [2] = test: Vero cell viability after compound exposure – synthesized analogs, set II, cytotoxicity control for West Nile virus antiviral project, SAR follow-up (AID 2402); format: functional; settings: Chlorocebus sabaeus
Vero [3] = test: host cell viability loss, Vero E6 – synthesized analogs, cytotoxicity control for West Nile virus antiviral project, SAR follow-up (AID 2244); format: functional; settings: Chlorocebus sabaeus
[4] = A Cell Based Assay for the Identification of Probe candidate Compounds with Anti- Venezuelan Equine Encephalitis virus. [Related pubchem assays: 2409, 2419, 1621, 2238, 2405, 2024, 2065, 2402, 2414, 1635, 1650, 2244 ]; format: functional
Vero [5] = test: antiviral protection of cells from WNV – synthesized analogs, SAR follow-up (AID 2238); format: functional, cell-based; settings: Chlorocebus sabaeus
[6] = HPDE-C7 pancreatic duct cell viability loss – fluorescence, HTS (AID 430); format: functional, cell-based; settings: Homo sapiens
[7] = viability loss of HPDE-C7K cells – cell-based, fluorescence, HTS, primary screen (AID 431); format: functional; settings: Homo sapiens
[8] = target: G-protein coupled receptor 55 (Homo sapiens, UniProt Q9Y2T6); test: selective activators of receptor GPR55 – imaging, U2OS cells, beta-arrestin-GFP redistribution, primary screen (AID 1961); format: functional
Ephrin type-A receptor 4 = Ephrin type-A receptor 4 (Mus musculus, UniProt Q03137); test: EphA4 ligand-binding antagonists – biochemical, colorimetric, mouse EphA4, primary screen (AID 689); format: functional
[9] = target: Induced myeloid leukemia cell differentiation protein Mcl-1 (Homo sapiens, UniProt Q07820); format: functional
[10] = target: T1, Tyrosine-protein phosphatase non-receptor type 7 (Homo sapiens, UniProt P35236); test: redox-active compounds inhibiting HePTP phosphatase – biochemical, fluorescence, mechanism study (AID 2068); format: functional
T1 sequence (P35236 whole entry): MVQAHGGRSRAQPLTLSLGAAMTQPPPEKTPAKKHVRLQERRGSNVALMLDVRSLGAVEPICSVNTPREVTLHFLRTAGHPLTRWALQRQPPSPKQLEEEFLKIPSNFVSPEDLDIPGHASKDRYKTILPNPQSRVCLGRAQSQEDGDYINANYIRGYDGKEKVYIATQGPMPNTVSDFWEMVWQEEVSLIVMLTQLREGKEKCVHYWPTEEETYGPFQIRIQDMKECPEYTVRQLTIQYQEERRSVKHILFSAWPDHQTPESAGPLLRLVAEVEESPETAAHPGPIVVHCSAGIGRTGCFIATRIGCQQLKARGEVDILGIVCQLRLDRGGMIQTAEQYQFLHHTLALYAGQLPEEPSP

[11] = target: Eukaryotic translation initiation factor 4H (Homo sapiens, UniProt Q15056); test: inhibitors of translation initiation factor eIF4H – SAR follow-up (AID 435011); format: functional
[12] = target: Polyadenylate-binding protein 1 (Homo sapiens, UniProt P11940); test: PABP inhibition in translation initiation, SAR follow-up (AID 435018); format: functional
[13] = target: T1, Tyrosine-protein phosphatase non-receptor type 7; test: Dose Response confirmation of compounds that inhibit HePTP. [Related pubchem assays (depositor defined):AID1059, AID1661, AID2085]; format: functional
[14] = target: T2, Dual specificity protein phosphatase 3 (Homo sapiens, UniProt P51452); test: Dose Response Confirmation of compounds that inhibit VHR1 in Fluorescent Assay. [Related pubchem assays (depositor defined):AID1661, AID1878]; format: functional
[15] = target: T3, Type-1 angiotensin II receptor (Homo sapiens, UniProt P30556); test: agonist activity at AGTR1 – cell-based, uHTS hits, selectivity assay for APJ receptor agonist project, dose response (AID 488865); format: functional;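 further: beta-arrestin recruitment to AT1 measured by enzyme fragment complementation luminescence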
T3 sequence (P30556 whole entry): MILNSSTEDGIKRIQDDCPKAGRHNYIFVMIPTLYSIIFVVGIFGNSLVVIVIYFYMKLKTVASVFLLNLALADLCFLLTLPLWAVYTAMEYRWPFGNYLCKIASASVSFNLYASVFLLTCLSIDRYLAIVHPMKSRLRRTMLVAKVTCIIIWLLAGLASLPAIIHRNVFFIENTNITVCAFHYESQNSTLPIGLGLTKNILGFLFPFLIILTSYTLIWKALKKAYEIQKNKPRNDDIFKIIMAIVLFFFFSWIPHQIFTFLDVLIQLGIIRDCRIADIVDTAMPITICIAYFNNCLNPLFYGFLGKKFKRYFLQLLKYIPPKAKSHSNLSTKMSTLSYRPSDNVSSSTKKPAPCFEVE

[16] = target: 5-hydroxytryptamine receptor 2A (Mus musculus, UniProt P35363); format: functional, cell-based;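 further: CHO-K1 cells with tagged receptor and beta-arrestin; agonist potency measured as compound-induced activation of the receptor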
[17] = target: T4, Mannose-6-phosphate isomerase (Homo sapiens, UniProt P34949); test: phosphomannose isomerase inhibition – biochemical, fluorescence intensity, confirmation (AID 1535)
T4 sequence (P34949 whole entry): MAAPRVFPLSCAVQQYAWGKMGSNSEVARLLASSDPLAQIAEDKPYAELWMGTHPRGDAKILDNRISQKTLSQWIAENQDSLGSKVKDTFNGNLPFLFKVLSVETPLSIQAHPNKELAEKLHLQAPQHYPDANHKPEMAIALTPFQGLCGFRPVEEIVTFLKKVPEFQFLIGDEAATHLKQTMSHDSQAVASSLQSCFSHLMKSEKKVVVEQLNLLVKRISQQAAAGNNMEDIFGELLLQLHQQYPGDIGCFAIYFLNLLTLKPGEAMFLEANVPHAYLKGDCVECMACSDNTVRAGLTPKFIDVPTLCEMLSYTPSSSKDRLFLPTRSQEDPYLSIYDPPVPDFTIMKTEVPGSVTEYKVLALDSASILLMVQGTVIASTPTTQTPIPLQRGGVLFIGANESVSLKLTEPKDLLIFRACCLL

Hexokinase = target: T5, Hexokinase (Trypanosoma brucei, UniProt Q38C41); test: Confirmation assay for inhibitors of Trypanosoma brucei hexokinase 1-Analogue-first series. [Related pubchem assays (depositor defined):AID1430, AID1632, AID2516, AID2560, AID2579, AID2600, AID449725, AID492951]; format: functional
T5 sequence (Q38C41 whole entry): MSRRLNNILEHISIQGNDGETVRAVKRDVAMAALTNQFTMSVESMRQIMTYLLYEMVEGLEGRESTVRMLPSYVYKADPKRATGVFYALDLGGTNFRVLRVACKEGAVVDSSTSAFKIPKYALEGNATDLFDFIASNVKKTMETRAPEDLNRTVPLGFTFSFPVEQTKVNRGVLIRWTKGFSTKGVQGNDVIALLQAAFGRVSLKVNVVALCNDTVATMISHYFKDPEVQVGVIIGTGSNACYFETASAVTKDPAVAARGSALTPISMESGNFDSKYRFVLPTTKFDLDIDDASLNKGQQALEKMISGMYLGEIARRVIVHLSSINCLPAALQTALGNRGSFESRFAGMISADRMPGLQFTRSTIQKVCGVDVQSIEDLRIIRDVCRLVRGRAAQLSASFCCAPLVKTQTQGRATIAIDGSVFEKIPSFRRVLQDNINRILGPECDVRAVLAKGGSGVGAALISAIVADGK

[18] = target: Glucose-6-phosphate 1-dehydrogenase (Homo sapiens, UniProt P11413); test: inhibition of Homo sapiens G6PD, dose series – biochemical, fluorescence, selectivity assay for P. falciparum G6PD inhibitor project, dose response (AID 504792); format: functional
Phosphomannomutase 2 = Phosphomannomutase 2 (Homo sapiens, UniProt O15305); test: Counter screen SAR assay for PMM2 inhibitors via a fluorescence intensity assay. [Related pubchem assays (depositor defined):AID1545, AID1574]
[19] = target: Phosphoethanolamine/phosphocholine phosphatase (Homo sapiens, UniProt Q8TCT1); test: SAR assay for compounds that inhibit PHOSPHO1. [Related pubchem assays (depositor defined):AID1545, AID1565, AID1574]
[20] = target: Mitochondrial peptide methionine sulfoxide reductase (Bos taurus, UniProt P54149); test: Absorbance-based biochemical high throughput dose response assay for activators of Methionine sulfoxide reductase A (MsrA).; format: functional
[21] = viability loss in HeLa cells – cytotoxicity control for MgcRacGAP inhibitor project, dose response (AID 624300); format: functional
[22] = target: T6, Rac GTPase-activating protein 1 (Homo sapiens, UniProt Q9H0H5); test: blockers of MgcRacGAP-driven Rac1 GTP hydrolysis – biochemical, ADP Hunter fluorescence, primary and confirmatory, confirmation (AID 624330); format: functional
T6 sequence (Q9H0H5 whole entry): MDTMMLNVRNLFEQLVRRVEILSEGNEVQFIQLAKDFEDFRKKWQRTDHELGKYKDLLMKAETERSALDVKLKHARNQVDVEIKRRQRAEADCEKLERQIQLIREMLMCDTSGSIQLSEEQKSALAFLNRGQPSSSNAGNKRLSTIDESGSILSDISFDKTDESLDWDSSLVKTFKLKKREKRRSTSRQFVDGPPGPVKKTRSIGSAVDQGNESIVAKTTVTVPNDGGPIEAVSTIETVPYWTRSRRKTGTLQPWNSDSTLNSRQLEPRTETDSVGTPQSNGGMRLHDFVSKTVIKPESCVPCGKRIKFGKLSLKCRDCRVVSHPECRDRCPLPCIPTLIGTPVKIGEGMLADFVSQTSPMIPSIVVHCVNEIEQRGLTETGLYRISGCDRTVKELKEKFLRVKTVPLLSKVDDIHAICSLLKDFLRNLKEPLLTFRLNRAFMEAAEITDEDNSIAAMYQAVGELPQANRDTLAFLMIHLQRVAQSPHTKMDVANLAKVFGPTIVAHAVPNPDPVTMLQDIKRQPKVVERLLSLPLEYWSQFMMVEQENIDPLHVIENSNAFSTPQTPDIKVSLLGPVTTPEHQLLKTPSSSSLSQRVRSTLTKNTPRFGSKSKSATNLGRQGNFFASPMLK

[23] = target: T1, Tyrosine-protein phosphatase non-receptor type 7; test: SAR analysis of chemical inhibitors of HePTP using a Fluorescent assay - Set 2. [Related pubchem assays (depositor defined):AID1059, AID1077, AID1661, AID2085, AID521]; format: functional
[24] = target: T2, Dual specificity protein phosphatase 3; test: SAR VHR1 Fluorescent Assay for In Vitro dose response studies Set 2. [Related pubchem assays (depositor defined):AID1654, AID1661, AID1878]; format: functional

T2 sequence (P51452 whole entry, the tested form may be a part): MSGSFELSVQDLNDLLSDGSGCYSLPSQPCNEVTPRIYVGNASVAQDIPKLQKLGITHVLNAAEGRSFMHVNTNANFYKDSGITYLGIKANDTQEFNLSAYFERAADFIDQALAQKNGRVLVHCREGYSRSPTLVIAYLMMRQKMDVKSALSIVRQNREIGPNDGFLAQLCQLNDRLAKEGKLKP
Phosphoethanolamine/phosphocholine phosphatase, sequence (Q8TCT1 whole entry): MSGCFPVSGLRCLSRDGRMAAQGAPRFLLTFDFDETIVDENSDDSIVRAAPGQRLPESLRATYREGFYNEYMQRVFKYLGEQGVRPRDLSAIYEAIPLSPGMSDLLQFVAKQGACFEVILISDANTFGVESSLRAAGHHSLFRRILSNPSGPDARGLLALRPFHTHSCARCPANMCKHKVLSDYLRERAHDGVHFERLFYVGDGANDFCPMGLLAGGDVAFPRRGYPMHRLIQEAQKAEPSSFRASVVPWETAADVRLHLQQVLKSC
Mitochondrial peptide methionine sulfoxide reductase, sequence (P54149 whole entry): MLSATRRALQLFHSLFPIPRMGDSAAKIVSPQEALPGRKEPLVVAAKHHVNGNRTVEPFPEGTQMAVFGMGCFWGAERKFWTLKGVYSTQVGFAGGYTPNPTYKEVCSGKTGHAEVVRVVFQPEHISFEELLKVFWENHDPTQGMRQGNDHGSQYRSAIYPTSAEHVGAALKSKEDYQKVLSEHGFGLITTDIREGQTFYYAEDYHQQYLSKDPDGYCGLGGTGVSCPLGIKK
Ephrin type-A receptor 4, sequence (Q03137 whole entry): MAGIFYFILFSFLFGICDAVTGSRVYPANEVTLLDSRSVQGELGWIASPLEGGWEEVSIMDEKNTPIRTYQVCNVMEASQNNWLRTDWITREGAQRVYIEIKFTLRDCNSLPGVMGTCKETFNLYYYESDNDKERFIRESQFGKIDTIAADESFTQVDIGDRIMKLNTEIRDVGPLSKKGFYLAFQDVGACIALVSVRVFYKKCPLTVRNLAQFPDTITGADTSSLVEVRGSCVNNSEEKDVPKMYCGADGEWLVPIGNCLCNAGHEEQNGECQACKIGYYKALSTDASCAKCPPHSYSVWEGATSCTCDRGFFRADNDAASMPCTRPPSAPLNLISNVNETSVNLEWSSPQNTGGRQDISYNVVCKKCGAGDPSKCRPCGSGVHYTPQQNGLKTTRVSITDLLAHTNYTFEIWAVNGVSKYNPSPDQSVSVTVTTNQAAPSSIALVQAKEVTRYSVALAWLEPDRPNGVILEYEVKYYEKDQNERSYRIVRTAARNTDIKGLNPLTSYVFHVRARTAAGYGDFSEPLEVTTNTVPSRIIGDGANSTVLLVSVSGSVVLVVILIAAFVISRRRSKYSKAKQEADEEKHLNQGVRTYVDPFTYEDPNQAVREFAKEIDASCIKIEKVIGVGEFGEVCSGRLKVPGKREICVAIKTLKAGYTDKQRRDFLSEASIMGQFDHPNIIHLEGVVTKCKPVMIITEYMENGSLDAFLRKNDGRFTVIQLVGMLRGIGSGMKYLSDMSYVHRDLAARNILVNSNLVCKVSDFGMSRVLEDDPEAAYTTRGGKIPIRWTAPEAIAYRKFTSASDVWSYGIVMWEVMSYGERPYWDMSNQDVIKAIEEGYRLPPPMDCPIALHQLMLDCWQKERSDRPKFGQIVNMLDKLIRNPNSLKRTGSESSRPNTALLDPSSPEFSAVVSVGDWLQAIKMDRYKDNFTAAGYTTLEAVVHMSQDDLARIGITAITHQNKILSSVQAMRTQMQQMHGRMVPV
Polyadenylate-binding protein 1, sequence (P11940 whole entry): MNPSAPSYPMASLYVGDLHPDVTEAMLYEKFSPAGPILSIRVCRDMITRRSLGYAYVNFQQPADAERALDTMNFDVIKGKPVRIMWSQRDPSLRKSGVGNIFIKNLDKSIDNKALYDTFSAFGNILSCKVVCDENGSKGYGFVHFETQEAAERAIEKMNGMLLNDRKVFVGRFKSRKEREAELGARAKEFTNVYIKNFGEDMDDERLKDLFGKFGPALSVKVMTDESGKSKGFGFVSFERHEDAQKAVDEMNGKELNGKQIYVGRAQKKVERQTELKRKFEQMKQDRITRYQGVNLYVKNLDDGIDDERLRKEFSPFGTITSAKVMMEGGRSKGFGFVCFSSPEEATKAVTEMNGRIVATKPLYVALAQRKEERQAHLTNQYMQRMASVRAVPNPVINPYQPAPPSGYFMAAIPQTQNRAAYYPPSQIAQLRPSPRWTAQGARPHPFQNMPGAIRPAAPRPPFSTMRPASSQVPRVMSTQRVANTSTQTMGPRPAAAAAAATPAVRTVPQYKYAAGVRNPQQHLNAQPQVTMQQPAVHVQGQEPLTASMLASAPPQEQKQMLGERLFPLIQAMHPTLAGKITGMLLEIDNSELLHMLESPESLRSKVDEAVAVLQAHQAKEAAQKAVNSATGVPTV
Glucose-6-phosphate 1-dehydrogenase, sequence (P11413 whole entry): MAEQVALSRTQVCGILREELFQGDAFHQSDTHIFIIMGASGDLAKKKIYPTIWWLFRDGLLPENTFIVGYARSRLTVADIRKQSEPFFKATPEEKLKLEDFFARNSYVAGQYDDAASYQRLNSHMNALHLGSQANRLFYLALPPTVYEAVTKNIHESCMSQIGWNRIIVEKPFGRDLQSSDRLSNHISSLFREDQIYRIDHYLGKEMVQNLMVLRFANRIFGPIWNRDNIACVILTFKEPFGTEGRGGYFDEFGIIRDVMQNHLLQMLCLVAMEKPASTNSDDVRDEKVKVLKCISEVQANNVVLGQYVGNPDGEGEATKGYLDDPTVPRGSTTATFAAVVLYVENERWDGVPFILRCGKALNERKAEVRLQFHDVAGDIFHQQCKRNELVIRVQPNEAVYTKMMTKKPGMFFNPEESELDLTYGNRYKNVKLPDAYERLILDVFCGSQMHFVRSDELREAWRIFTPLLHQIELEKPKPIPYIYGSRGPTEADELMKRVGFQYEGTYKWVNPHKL
5-hydroxytryptamine receptor 2A, sequence (P35363 whole entry): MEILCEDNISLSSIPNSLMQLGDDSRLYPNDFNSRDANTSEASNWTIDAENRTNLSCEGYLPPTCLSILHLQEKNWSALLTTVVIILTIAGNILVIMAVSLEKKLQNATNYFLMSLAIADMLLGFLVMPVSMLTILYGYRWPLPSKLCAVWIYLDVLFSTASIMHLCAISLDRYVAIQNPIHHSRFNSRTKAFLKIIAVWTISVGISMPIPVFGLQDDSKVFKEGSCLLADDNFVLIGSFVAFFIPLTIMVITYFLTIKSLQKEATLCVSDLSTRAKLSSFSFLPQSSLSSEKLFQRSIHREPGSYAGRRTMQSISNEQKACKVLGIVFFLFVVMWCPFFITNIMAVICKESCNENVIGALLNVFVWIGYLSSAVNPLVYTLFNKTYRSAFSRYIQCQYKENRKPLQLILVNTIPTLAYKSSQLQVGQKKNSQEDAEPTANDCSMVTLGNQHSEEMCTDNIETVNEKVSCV
G-protein coupled receptor 55, sequence (Q9Y2T6 whole entry): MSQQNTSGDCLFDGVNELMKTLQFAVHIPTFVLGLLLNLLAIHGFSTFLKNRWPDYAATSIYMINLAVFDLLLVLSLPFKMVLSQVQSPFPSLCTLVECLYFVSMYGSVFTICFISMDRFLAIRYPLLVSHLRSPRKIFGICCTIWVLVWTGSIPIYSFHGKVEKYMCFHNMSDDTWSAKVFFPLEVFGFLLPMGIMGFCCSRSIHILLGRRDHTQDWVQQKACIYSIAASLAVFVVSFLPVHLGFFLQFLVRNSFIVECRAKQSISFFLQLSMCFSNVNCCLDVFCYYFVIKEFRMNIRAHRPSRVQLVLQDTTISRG
Phosphomannomutase 2, sequence (O15305 whole entry): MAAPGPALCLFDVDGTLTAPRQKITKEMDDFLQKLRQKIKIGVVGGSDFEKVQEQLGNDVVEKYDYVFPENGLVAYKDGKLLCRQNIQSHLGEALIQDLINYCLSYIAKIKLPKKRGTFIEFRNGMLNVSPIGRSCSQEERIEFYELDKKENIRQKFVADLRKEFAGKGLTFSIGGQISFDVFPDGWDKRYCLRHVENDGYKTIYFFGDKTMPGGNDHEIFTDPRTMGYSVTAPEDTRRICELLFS
Induced myeloid leukemia cell differentiation protein Mcl-1, sequence (Q07820 whole entry): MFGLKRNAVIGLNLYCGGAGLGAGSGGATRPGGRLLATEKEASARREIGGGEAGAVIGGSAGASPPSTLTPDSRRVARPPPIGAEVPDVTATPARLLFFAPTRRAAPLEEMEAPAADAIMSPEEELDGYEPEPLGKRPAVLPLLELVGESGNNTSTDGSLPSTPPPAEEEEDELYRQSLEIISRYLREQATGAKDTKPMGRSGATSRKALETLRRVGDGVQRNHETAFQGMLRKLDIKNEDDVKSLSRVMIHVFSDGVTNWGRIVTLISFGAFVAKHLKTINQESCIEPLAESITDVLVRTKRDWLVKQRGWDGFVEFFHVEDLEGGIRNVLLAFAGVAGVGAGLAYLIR

For O=C(CSc1nc2ccccc2c(=O)n1-c1ccc(Cl)cc1)Nc1ccc2c(c1)CCC2, the CC50 (Vero [1]) was > 66.6 µM (active), the CC50 (Vero [2]) was > 100 µM (active) and the CC50 (Vero [3]) was > 40 µM (active). The IC50 [4] was 7.56 µM (active) and the IC50 (Vero [5]) was > 40 µM (active).
In the case of CC/C(Nc1ccc(OC)cc1OC)=C1/C(=O)NC(=O)N(C2CCCCC2)C1=O, the EC50 [6] is reported as 12.8 µM (active), the EC50 [7] is reported as 16.3 µM (active) and the EC50 [8] is reported as 10.9 µM (inactive).
With O=S(=O)(c1ccc2nc(-c3ccco3)c(-c3ccco3)nc2c1)N1CCOCC1 the IC50 (Ephrin type-A receptor 4) was 21.5 µM (active), the IC50 [9] was 5.65 µM (active) and the IC50 [10] was 7.46 µM (active).
In the case of COc1ccc([N+](=O)[O-])cc1NC(=O)C(C)OC(=O)c1ccccc1C(=O)c1ccc(Cl)cc1 (configuration not stated), the IC50 [11] is reported as > 100 µM (inactive) and the IC50 [12] is reported as > 100 µM (inactive).
In the case of Cn1c2ccccc2c(=O)c2ccc(C#Cc3ccccn3)cc21, the IC50 [13] is reported as 6.64 µM (active) and the IC50 [14] is reported as 7.2 µM (active).
In the case of COC(=O)C1=C(Cn2cnc3ccccc32)NC(=O)NC1c1cc(C)ccc1C (configuration not stated), the EC50 [15] is reported as > 100 µM (inactive) and the EC50 [16] is reported as 8.44 µM (active).
With O=c1c2ccccc2sn1-c1cccc(Cl)c1 the IC50 [17] was 3.43 µM (active), the IC50 (Hexokinase) was 1.9 µM (active) and the IC50 [18] was 13 µM (active). The IC50 (Phosphomannomutase 2) was 59.6 µM (active), the IC50 [19] was 5.21 µM (inactive) and the EC50 [20] was > 104 µM (inactive). For the same compound, the CC50 [21] was 100 µM (active) and the IC50 [22] was 33.9 µM (active).
For O=S(=O)(Nc1ncccn1)c1ccc(NC(=S)N2CCN(Cc3ccc4c(c3)OCO4)CC2)cc1, the IC50 [23] was > 100 µM (inactive) and the IC50 [24] was > 100 µM (inactive).
